Experimental data reported in ChEMBL document CHEMBL5046265, “Synthesis of Hemiprotonic Phenanthroline-Phenanthroline+ Compounds with both Antitumor and Antimicrobial Activity” (J Med Chem, 2022).
Active and inactive are the calls of the source.

Assays:
Assay type in all cases: functional, organism-based
Conditions in all cases: time 9.0 day
[1] = test system: Mus musculus; experiment: Anti-Cryptococcal activity against Cryptococcus neoformans infected pneumonia and encephalitis C57BL/6J mouse model assessed as increase in body weight at 8 mg/kg, iv administered once a day for 9 days
[2] = test system: Mus musculus; experiment: Anti-Cryptococcal activity against Cryptococcus neoformans infected pneumonia and encephalitis C57BL/6J mouse model assessed as reduction in pneumonia symptoms at 8 mg/kg, iv administered once a day for 9 days and measured at 24 hrs at last post-dosage
[3] = test system: Mus musculus; experiment: Anti-Cryptococcal activity against Cryptococcus neoformans infected pneumonia and encephalitis C57BL/6J mouse model assessed as reduction in brain edema at 8 mg/kg, iv administered once a day for 9 days and measured at 24 hrs at last post-dosage
[4] = test system: Mus musculus; experiment: Anti-Cryptococcal activity against Cryptococcus neoformans infected pneumonia and encephalitis C57BL/6J mouse model assessed as improvement in clinical symptoms at 8 mg/kg, iv administered once a day for 9 days

Measured: Activity

OC(Cn1cncn1)(Cn1cncn1)c1ccc(F)cc1F
active: all assays above
